From US11542210B2, “Method of producing a monoammonium phosphate containing fertilizer solution” (Liquigro Holdings (Proprietary) Limited, priority 2016, dated 2023) come the findings set out here.

Where only a bound is given, the exact number is not on record here.

The test system of the data set is Maize. As to the kind of experiment: Crop application - vegetative growth (maize): spray application, damage to the plants. It is filed as in vivo. The text has this:
When using MAP technical, it is only possible to spray a maximum of 1 kg P per ha before damage is inflicted on the plants.

Turning to `N.O=P(O)(O)O` [MAP technical, monoammonium phosphate (technical)], the “maximum that can be sprayed before damage is inflicted on the plants” value is at most 1 kg P per ha.
